According to the supplement of paper PMC10307832:

Assays:
Test in all cases: relative viability (nuclei count vs DMSO), 5 days (fraction); higher = more cells survive
NCI-H1650 = settings: first compound 4 µM
In short: (§1)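 Each reported value is a median over duplicate plates. It expresses relative viability: treated-well nuclei count divided by vehicle-well nuclei count. Lung cancer cell lines in 1536-well plates were dosed by pin tool a day after seeding, alone with one drug or with a fixed anchor-drug dose plus five library-drug doses (not always all listed) in √10 steps, and nuclei were counted after 5 days.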

NCI-H1734 = test system: NCI-H1734
In short: as §1

NCI-H1944 = test system: NCI-H1944
In short: as §1

NCI-H1993 = test system: NCI-H1993
In short: as §1

NCI-H2009 = test system: NCI-H2009
In short: as §1

NCI-H2023 = test system: NCI-H2023
In short: as §1

NCI-H2228 = test system: NCI-H2228
In short: as §1

NCI-H23 = test system: NCI-H23
In short: as §1

NCI-H2405 = test system: NCI-H2405
In short: as §1

NCI-H838 = test system: NCI-H838
In short: as §1

SK-LU-1 = test system: SK-LU-1
In short: as §1

UMC-11 = test system: UMC-11
In short: as §1

Clc1ccc(Nc2nnc(Cc3ccncc3)c3ccccc23)cc1 [Vatalanib] + C[C@@H](Oc1cc(-c2cnn(C3CCNCC3)c2)cnc1N)c1c(Cl)ccc(F)c1Cl [Crizotinib] (partner 1 µM) was tested, and the relative viability (NCI-H1650) was 1.05, the relative viability (NCI-H1734; first compound 0.04 µM) was 0.714 and the relative viability (NCI-H1734; first compound 0.1265 µM) was 0.645. The relative viability (NCI-H1734; first compound 0.4 µM) was 0.796, the relative viability (NCI-H1734; first compound 1.265 µM) was 0.694 and the relative viability (NCI-H1734; first compound 4 µM) was 0.57. For the same compound, the relative viability (NCI-H1944; first compound 0.04 µM) was 1.13, the relative viability (NCI-H1944; first compound 0.1265 µM) was 0.986 and the relative viability (NCI-H1944; first compound 0.4 µM) was 1.23. It also gave a relative viability (NCI-H1944; first compound 1.265 µM) of 1.1, a relative viability (NCI-H1944; first compound 4 µM) of 1.05 and a relative viability (NCI-H1993; first compound 0.04 µM) of 0.948. It also gave a relative viability (NCI-H1993; first compound 0.1265 µM) of 0.853, a relative viability (NCI-H1993; first compound 0.4 µM) of 0.935 and a relative viability (NCI-H1993; first compound 1.265 µM) of 0.805. It also gave a relative viability (NCI-H1993; first compound 4 µM) of 0.846, a relative viability (NCI-H2009; first compound 0.04 µM) of 0.987 and a relative viability (NCI-H2009; first compound 0.1265 µM) of 0.478. It also gave a relative viability (NCI-H2009; first compound 0.4 µM) of 1.12, a relative viability (NCI-H2009; first compound 1.265 µM) of 1 and a relative viability (NCI-H2009; first compound 4 µM) of 0.977. For the same compound, the relative viability (NCI-H2023; first compound 0.04 µM) was 0.571, the relative viability (NCI-H2023; first compound 0.1265 µM) was 0.667 and the relative viability (NCI-H2023; first compound 0.4 µM) was 0.698. For the same compound, the relative viability (NCI-H2023; first compound 1.265 µM) was 0.605, the relative viability (NCI-H2023; first compound 4 µM) was 0.559 and the relative viability (NCI-H2228; first compound 0.04 µM) was 0.332. The relative viability (NCI-H2228; first compound 0.1265 µM) was 0.496, the relative viability (NCI-H2228; first compound 0.4 µM) was 0.499 and the relative viability (NCI-H2228; first compound 1.265 µM) was 0.432. It also gave a relative viability (NCI-H2228; first compound 4 µM) of 0.496, a relative viability (NCI-H23; first compound 0.04 µM) of 0.505 and a relative viability (NCI-H23; first compound 0.1265 µM) of 0.49. For the same compound, the relative viability (NCI-H23; first compound 0.4 µM) was 0.491, the relative viability (NCI-H23; first compound 1.265 µM) was 0.622 and the relative viability (NCI-H23; first compound 4 µM) was 0.564. For the same compound, the relative viability (NCI-H2405; first compound 0.04 µM) was 0.896, the relative viability (NCI-H2405; first compound 0.1265 µM) was 0.79 and the relative viability (NCI-H2405; first compound 0.4 µM) was 0.932. The relative viability (NCI-H2405; first compound 1.265 µM) was 0.816, the relative viability (NCI-H2405; first compound 4 µM) was 0.82 and the relative viability (NCI-H838; first compound 0.04 µM) was 0.837. The relative viability (NCI-H838; first compound 0.1265 µM) was 0.867, the relative viability (NCI-H838; first compound 0.4 µM) was 1.01 and the relative viability (NCI-H838; first compound 1.265 µM) was 0.73. It also gave a relative viability (NCI-H838; first compound 4 µM) of 0.79, a relative viability (SK-LU-1; first compound 0.04 µM) of 0.923 and a relative viability (SK-LU-1; first compound 0.1265 µM) of 0.898. It also gave a relative viability (SK-LU-1; first compound 0.4 µM) of 1.02, a relative viability (SK-LU-1; first compound 1.265 µM) of 1.06 and a relative viability (SK-LU-1; first compound 4 µM) of 0.696. For the same compound, the relative viability (UMC-11; first compound 0.04 µM) was 0.616, the relative viability (UMC-11; first compound 0.1265 µM) was 0.585 and the relative viability (UMC-11; first compound 0.4 µM) was 0.719. For the same compound, the relative viability (UMC-11; first compound 1.265 µM) was 0.586 and the relative viability (UMC-11; first compound 4 µM) was 0.629.
